The text below walks through data of patent US20250339443A1, “METHOD FOR TREATING OR PREVENTING CALCIUM RELEASE-ACTIVATED CALCIUM CHANNEL OR DISCOIDIN DOMAIN RECEPTOR 2 RELATED DISORDERS OR CONDITIONS” (LumiSTAR Biotechnology, Inc., priority 2023, published 2025).

The test deals with CRAC channel (Homo sapiens, UniProt Q96D31). Kind of test: SOCE in macrophages. On the set-up: endogenous in cells; host or cells: HEK293T. Type of test: cell-based. The note with it: 10 μM. As to the method: The effects of BTP2, WRG-28, Av, and CM-4620 on SOCE were evaluated in T cells (FIG. 4A) and macrophages (FIG. 4E). Cells were cultured on glass-bottom 96-well plates and pretreated with various compounds (10 μM) while being loaded with Fura 2-AM. Subsequently, the cytosolic calcium signal waves were recorded, and the second peak of each wave and rate of entry were assessed. Each bar represents the mean value derived from, 43 to 111 cells for T cells (FIG. 4A), and 52 to 91 cells for macrophages (FIG. 4E). Cytokine induction in T cells and macrophages was conducted as described in the methods section. The levels of cytokines, including IL-2, TNF-α, and IL-6 in the culture medium were assessed using ELISA kits for T cells (FIG. 4B, FIG. 4C, and FIG. 4D) and macrophages (FIG. 4F, FIG. 4G, and FIG. 4H), respectively. Each bar represents the mean±SEM. In all the graphs, *, **, and *** denote p-values of <0.05, 0.01, and 0.001, respectively. […]
Cells cultured on a glass-bottom 96 well plate for 48 hours were treated with different compounds (10 μM) and Fura 2-AM (1 μM) simultaneously in a solution containing 145 mM NaCl, 2.8 mM KCl, 2 mM CaCl2, 2 mM MgCl2, 10 mM D-glucose, 10 mM HEPES, pH 7.4 for 40 minutes in the dark. […] All the images were analyzed by using IGOR Pro software. […]

CRAC channel, sequence (Q96D31 whole entry): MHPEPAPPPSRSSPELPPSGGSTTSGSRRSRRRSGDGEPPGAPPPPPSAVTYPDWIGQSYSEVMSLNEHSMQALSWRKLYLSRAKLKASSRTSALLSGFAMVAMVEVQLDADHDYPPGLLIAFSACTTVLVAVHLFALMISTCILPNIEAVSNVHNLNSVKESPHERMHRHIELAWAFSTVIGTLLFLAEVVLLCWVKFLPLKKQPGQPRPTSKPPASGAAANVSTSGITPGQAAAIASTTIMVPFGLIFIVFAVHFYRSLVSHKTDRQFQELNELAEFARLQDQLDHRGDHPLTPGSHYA

Turning to `CCNS(=O)(=O)c1ccc(COc2ccc3nc4ccc(=O)cc-4oc3c2)cc1` [WRG-28], the SOCE in macrophages entry is listed as “higher efficacy compared to Av”.
